Source: PubChem BioAssay AID1963872 (Molecular Pharmacology Branch, DTP, NCI, 2024)

System: KRAS patient-derived spheroids with HUVEC/MSC, viability
Experiment: Anticancer human tumor 519858-162-T-J1-PDC patient-derived colon adenocarcinoma cell line growth inhibition [KRAS2]
Settings: for viability, T/C: stronger effect = lower value
How it was run: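 Combination screen of spheroid viability in tumor-cell co-cultures with endothelial (HUVEC) and mesenchymal stem cell stroma. Each agent was tested in half-log dilutions, topping at clinical Cmax or at 10 microM without a known Cmax.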

[1] = curve of first compound, second compound 0.1 µM
[2] = curve of first compound, second compound 0.316 µM
[3] = curve of first compound, second compound 1 µM
[4] = curve of first compound, second compound 3.16 µM
[5] = curve of first compound, second compound 10 µM
[6] = second compound 0.1 µM, first compound 0.0316 µM
[7] = second compound 0.1 µM, first compound 0.1 µM
[8] = second compound 0.316 µM, first compound 0.0316 µM
[9] = second compound 0.316 µM, first compound 0.1 µM
[10] = second compound 1 µM, first compound 0.0316 µM
[11] = second compound 1 µM, first compound 0.1 µM
[12] = second compound 3.16 µM, first compound 0.0316 µM
[13] = second compound 3.16 µM, first compound 0.1 µM
[14] = second compound 10 µM, first compound 0.0316 µM
[15] = second compound 10 µM, first compound 0.1 µM
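Note: compound exposure lasted seven days before readout.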
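Throughout, for viability, T/C: 100% = DMSO vehicle control viability.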

Cn1ncnc1[C@H]1c2n[nH]c(=O)c3cc(F)cc(c23)N[C@@H]1c1ccc(F)cc1 + CC1OCC2(CCN(c3cnc(Sc4ccnc(N)c4Cl)c(N)n3)CC2)C1N
IC50 [1]: > 0.1 µM | IC50 [2]: > 0.1 µM | IC50 [3]: > 0.1 µM | IC50 [4]: > 0.1 µM | IC50 [5]: > 0.1 µM | viability, T/C (second compound 0.1 µM, first compound 0.000316 µM): 81.5% | viability, T/C (second compound 0.1 µM, first compound 0.001 µM): 81.4% | viability, T/C (second compound 0.1 µM, first compound 0.00316 µM): 91.9% | viability, T/C (second compound 0.1 µM, first compound 0.01 µM): 88.9% | viability, T/C [6]: 81.5% | viability, T/C [7]: 101% | viability, T/C (second compound 0.316 µM, first compound 0.000316 µM): 68% | viability, T/C (second compound 0.316 µM, first compound 0.001 µM): 87.3% | viability, T/C (second compound 0.316 µM, first compound 0.00316 µM): 77% | viability, T/C (second compound 0.316 µM, first compound 0.01 µM): 56.7% | viability, T/C [8]: 77.3% | viability, T/C [9]: 80.2% | viability, T/C (second compound 1 µM, first compound 0.000316 µM): 99.4% | viability, T/C (second compound 1 µM, first compound 0.001 µM): 58.1% | viability, T/C (second compound 1 µM, first compound 0.00316 µM): 82.4% | viability, T/C (second compound 1 µM, first compound 0.01 µM): 65.5% | viability, T/C [10]: 59.1% | viability, T/C [11]: 82.9% | viability, T/C (second compound 3.16 µM, first compound 0.000316 µM): 57.1% | viability, T/C (second compound 3.16 µM, first compound 0.001 µM): 49.4% | viability, T/C (second compound 3.16 µM, first compound 0.00316 µM): 59.5% | viability, T/C (second compound 3.16 µM, first compound 0.01 µM): 53.7% | viability, T/C [12]: 59.9% | viability, T/C [13]: 75.1% | viability, T/C (second compound 10 µM, first compound 0.000316 µM): 62% | viability, T/C (second compound 10 µM, first compound 0.001 µM): 68.4% | viability, T/C (second compound 10 µM, first compound 0.00316 µM): 84.7% | viability, T/C (second compound 10 µM, first compound 0.01 µM): 65.7% | viability, T/C [14]: 65.4% | viability, T/C [15]: 65.8%

CC(C)NCC(C(=O)N1CCN(c2ncnc3c2C(C)CC3O)CC1)c1ccc(Cl)cc1 (centres undefined) + C=CC(=O)N1CCN(c2nc(=O)n(-c3c(C)ccnc3C(C)C)c3nc(-c4c(O)cccc4F)c(F)cc23)C(C)C1
IC50 [1]: > 10 µM | IC50 [2]: > 10 µM | IC50 [3]: > 10 µM | IC50 [4]: > 10 µM | IC50 [5]: > 10 µM | viability, T/C [6]: 95.1% | viability, T/C [7]: 103% | viability, T/C (second compound 0.1 µM, first compound 0.316 µM): 65.2% | viability, T/C (second compound 0.1 µM, first compound 1 µM): 69% | viability, T/C (second compound 0.1 µM, first compound 3.16 µM): 111% | viability, T/C (second compound 0.1 µM, first compound 10 µM): 93.2% | viability, T/C [8]: 95.3% | viability, T/C [9]: 83.3% | viability, T/C (second compound 0.316 µM, first compound 0.316 µM): 86.5% | viability, T/C (second compound 0.316 µM, first compound 1 µM): 91.9% | viability, T/C (second compound 0.316 µM, first compound 3.16 µM): 99.1% | viability, T/C (second compound 0.316 µM, first compound 10 µM): 119% | viability, T/C [10]: 68.7% | viability, T/C [11]: 105% | viability, T/C (second compound 1 µM, first compound 0.316 µM): 96.9% | viability, T/C (second compound 1 µM, first compound 1 µM): 102% | viability, T/C (second compound 1 µM, first compound 3.16 µM): 77.8% | viability, T/C (second compound 1 µM, first compound 10 µM): 72.7% | viability, T/C [12]: 92.8% | viability, T/C [13]: 90.3% | viability, T/C (second compound 3.16 µM, first compound 0.316 µM): 87.5% | viability, T/C (second compound 3.16 µM, first compound 1 µM): 67% | viability, T/C (second compound 3.16 µM, first compound 3.16 µM): 82.7% | viability, T/C (second compound 3.16 µM, first compound 10 µM): 87.5% | viability, T/C [14]: 85.9% | viability, T/C [15]: 73.8% | viability, T/C (second compound 10 µM, first compound 0.316 µM): 64.1% | viability, T/C (second compound 10 µM, first compound 1 µM): 73.9% | viability, T/C (second compound 10 µM, first compound 3.16 µM): 90.8% | viability, T/C (second compound 10 µM, first compound 10 µM): 75%

COc1cc2nccc(Oc3ccc(NC(=O)C4(C(=O)Nc5ccc(F)cc5)CC4)cc3)c2cc1OC
viability, T/C (compound 0.316 µM): 86.4% [middle of 5 runs] | IC50 (curve of compound): > 10 µM

COC(=O)c1ccc2c(C(=Nc3ccc(N(C)C(=O)CN4CCN(C)CC4)cc3)c3ccccc3)c(O)[nH]c2c1
viability, T/C (compound 0.0316 µM): 87.6% [middle of 5 runs] | IC50 (curve of compound): > 10 µM
